# Results published in article PMC7529893, “Structural basis for substrate recognition and chemical inhibition of oncogenic MAGE ubiquitin ligases” (Nature Communications, 2020).
# Biological target: T1, MAGE-A11:PCF11 interaction (GST-MAGE-A11 and FAM-PCF11_4) (Homo sapiens, UniProt P43364)
# T1 construct: GST-MAGE-A11 MHD (human MAGE-A11 MHD amino acid 218-429); made in house; host or cells: E. coli BL21(DE3)
# T1 sequence (P43364 218-429): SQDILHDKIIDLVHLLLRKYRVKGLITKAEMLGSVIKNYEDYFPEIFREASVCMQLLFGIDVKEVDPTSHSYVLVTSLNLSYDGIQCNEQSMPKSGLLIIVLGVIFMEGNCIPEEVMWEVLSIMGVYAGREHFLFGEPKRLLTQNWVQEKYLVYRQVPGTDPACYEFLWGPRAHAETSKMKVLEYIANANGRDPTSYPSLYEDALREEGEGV
# Assay: TR-FRET primary / single point screen at 15 µM
# Format: binding
# Summary of the method: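 Single-point screen at 15 µM final compound in 50 mM Tris pH 7.5, 20 mM MgCl2, 0.1 mg/ml BSA, 1 mM DTT, with 200 nM FAM-PCF11_4, 5 nM Tb-anti-GST and 5 nM GST-MAGE-A11. After 90 min at room temperature, the 520/490 nm TR-FRET ratio (340 nm excitation) gave %Inhibition against no-MAGE-A11 and DMSO controls.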
# [1] = single point TR-FRET screening of 797 quinoline compounds against MAGE-A11:PCF11
# [2] = single point TR-FRET screening of quinoline compounds against MAGE-A11:PCF11, 15 µM
Structure (SMILES),percent inhibition (TR-FRET) [1],percent inhibition (TR-FRET) [2]
FC(F)(F)Oc1ccc(CN(CCCCNc2ccnc3cc(Cl)ccc23)Cc2ccccc2)cc1 [SJ000520451],39.8725,–
COc1ccc(OC(F)(F)F)cc1CN(CCCNc1ccnc2cc(Cl)ccc12)Cc1ccccc1 [SJ000520452],–,20.4443
Clc1ccc2c(NCCCCN(Cc3ccccc3)Cc3cccnc3Br)ccnc2c1 [SJ000520453],2.377,–
Clc1ccc2c(NCCCN(Cc3ccccc3)Cc3csc4ccccc34)ccnc2c1 [SJ000520454],–,28.1386
FC(F)(F)c1cccc(CN(CCCCNc2ccnc3cc(Cl)ccc23)Cc2ccccc2)c1 [SJ000520455],26.3784,–
Cc1csc(CN(CCCCNc2ccnc3cc(Cl)ccc23)Cc2ccccc2)n1 [SJ000520456],-12.8602,–
FC(F)(F)Oc1cccc(CN(CCCCNc2ccnc3cc(Cl)ccc23)Cc2ccccc2)c1 [SJ000520457],33.314,–
Cc1ccc(F)cc1CN(CCCNc1ccnc2cc(Cl)ccc12)Cc1ccccc1 [SJ000520458],–,29.7727
FC(F)(F)Oc1ccccc1CN(CCCCNc1ccnc2cc(Cl)ccc12)Cc1ccccc1 [SJ000520459],30.8594,–
FC(F)(F)Oc1ccc(CN(CCCNc2ccnc3cc(Cl)ccc23)Cc2ccccc2)cc1 [SJ000520460],–,25.0481
Clc1ccc2c(NCCCN(Cc3ccccc3)Cc3cc4ccccc4o3)ccnc2c1 [SJ000520461],–,5.6
Clc1ccc2c(NCCCN(Cc3ccccc3)Cc3cccnc3Br)ccnc2c1 [SJ000520462],–,9.715
Cc1csc(CN(CCCNc2ccnc3cc(Cl)ccc23)Cc2ccccc2)n1 [SJ000520463],–,-10.469
FC(F)(F)Oc1cccc(CN(CCCNc2ccnc3cc(Cl)ccc23)Cc2ccccc2)c1 [SJ000520464],–,27.7788
Fc1cccc(C(F)(F)F)c1CN(CCCCNc1ccnc2cc(Cl)ccc12)Cc1ccccc1 [SJ000520465],28.7514,–
FC(F)(F)c1cc(CN(CCCCNc2ccnc3cc(Cl)ccc23)Cc2ccccc2)ccc1Cl [SJ000520466],25.2787,–
Fc1cccc(C(F)(F)F)c1CN(CCCNc1ccnc2cc(Cl)ccc12)Cc1ccccc1 [SJ000520467],–,22.0104
CCCN(CCCNc1ccnc2cc(C(F)(F)F)ccc12)Cc1c[nH]c2ccccc12 [SJ000520468],–,16.1561
CCCN(CCCNc1ccnc2cc(C(F)(F)F)ccc12)Cc1cn(C)c2ccccc12 [SJ000520469],–,25.5382
CCCN(CCCNc1ccnc2cc(C(F)(F)F)ccc12)Cc1ccccc1OC(F)(F)F [SJ000520470],–,5.934
CCCN(CCCNc1ccnc2cc(C(F)(F)F)ccc12)Cc1cccc(C(F)(F)F)c1 [SJ000520471],–,13.0224

Structure (SMILES),percent inhibition (TR-FRET) [1],percent inhibition (TR-FRET) [2]
CCCN(CCCNc1ccnc2cc(C(F)(F)F)ccc12)Cc1cccc2c1OCO2 [SJ000520472],–,14.6158
CCCN(CCCNc1ccnc2cc(C(F)(F)F)ccc12)Cc1cccc(OC(F)(F)F)c1 [SJ000520473],–,9.085
CCCN(CCCNc1ccnc2cc(C(F)(F)F)ccc12)Cc1ccc(OC(F)(F)F)cc1 [SJ000520474],–,17.3802
CCCN(CCCNc1ccnc2cc(C(F)(F)F)ccc12)Cc1cc(F)ccc1OC [SJ000520475],–,15.746
CCCN(CCCNc1ccnc2cc(C(F)(F)F)ccc12)CCC(C)(C)C [SJ000520476],–,32.3298
CCCCN(CCC)CCCNc1ccnc2cc(C(F)(F)F)ccc12 [SJ000520477],–,23.5778
CCCN(CCCNc1ccnc2cc(C(F)(F)F)ccc12)Cc1cc(Br)cs1 [SJ000520478],–,-9.243
CCCN(CCCNc1ccnc2cc(C(F)(F)F)ccc12)Cc1cc2ccccc2o1 [SJ000520479],–,-20.4102
CCCN(CCCNc1ccnc2cc(C(F)(F)F)ccc12)Cc1cc(OC)ccc1F [SJ000520480],–,11.9552
CCCN(CCCNc1ccnc2cc(C(F)(F)F)ccc12)Cc1c(F)cccc1C(F)(F)F [SJ000520481],–,11.4651
CCCN(CCCNc1ccnc2cc(C(F)(F)F)ccc12)Cc1cc2ccccc2s1 [SJ000520482],–,13.0054
CCCN(CCCNc1ccnc2cc(C(F)(F)F)ccc12)Cc1csc2ccccc12 [SJ000520483],–,19.4469
CCCN(CCCNc1ccnc2cc(C(F)(F)F)ccc12)Cc1nc2ccccc2s1 [SJ000520484],–,7.404
CCCN(CCCNc1ccnc2cc(C(F)(F)F)ccc12)Cc1cc(OC(F)(F)F)ccc1OC [SJ000520485],–,5.6
CCCN(CCCNc1ccnc2cc(C(F)(F)F)ccc12)Cc1cc(C(F)(F)F)ccc1OC [SJ000520486],–,8.188
O=[N+]([O-])c1ccc(CNCCCNc2ccnc3cc(Cl)ccc23)s1 [SJ000520912],–,6.284
Clc1ccc2c(NCCCNCc3ccoc3)ccnc2c1 [SJ000520913],–,-11.15
COc1ccc2nc3cc(Cl)ccc3c(NCCCNCc3ccc4[nH]ccc4c3)c2c1 [SJ000520914],-184.229,–
COc1ccc2nc3cc(Cl)ccc3c(NCCCNCc3c(F)cccc3OC)c2c1 [SJ000520915],-298.775,–
COc1ccc2nc3cc(Cl)ccc3c(NCCCNCc3ccoc3)c2c1 [SJ000520916],-299.405,–
CCCN(CCC)CCCNc1c2ccc(Cl)cc2nc2ccc(OC)cc12 [SJ000520917],-288.202,–

Structure (SMILES),percent inhibition (TR-FRET) [1],percent inhibition (TR-FRET) [2]
CCCN(CCCNc1c2ccc(Cl)cc2nc2ccc(OC)cc12)Cc1ccncc1 [SJ000520918],–,-1.797
CCCN(CCCNc1c2ccc(Cl)cc2nc2ccc(OC)cc12)Cc1ccccn1 [SJ000520919],-146.21,–
CCCN(CCCNc1c2ccc(Cl)cc2nc2ccc(OC)cc12)Cc1cccs1 [SJ000520920],-164.134,–
CCCN(CCCNc1c2ccc(Cl)cc2nc2ccc(OC)cc12)Cc1sccc1C [SJ000520921],–,-83.8109
CCCN(CCCNc1c2ccc(Cl)cc2nc2ccc(OC)cc12)Cc1ccsc1 [SJ000520922],-258.026,–
CCCN(CCCNc1c2ccc(Cl)cc2nc2ccc(OC)cc12)Cc1ccc[nH]1 [SJ000520923],-271.048,–
CCCN(CCCNc1c2ccc(Cl)cc2nc2ccc(OC)cc12)Cc1ccc(Br)s1 [SJ000520924],–,-56.4502
CCCN(CCCNc1c2ccc(Cl)cc2nc2ccc(OC)cc12)Cc1ccccc1 [SJ000520925],-127.926,–
CCCN(CCCNc1c2ccc(Cl)cc2nc2ccc(OC)cc12)Cc1ccccc1O [SJ000520926],–,-91.8376
CCCN(CCCNc1c2ccc(Cl)cc2nc2ccc(OC)cc12)Cc1ccc(C)s1 [SJ000520927],-124.818,–
CCCN(CCCNc1c2ccc(Cl)cc2nc2ccc(OC)cc12)Cc1ccccc1C(F)(F)F [SJ000520928],–,14.1686
CCCN(CCCNc1c2ccc(Cl)cc2nc2ccc(OC)cc12)Cc1ccc(Br)o1 [SJ000520929],-137.318,–
CCCN(CCCNc1c2ccc(Cl)cc2nc2ccc(OC)cc12)Cc1cccc(OC)c1O [SJ000520930],–,-81.9559
CCCN(CCCNc1c2ccc(Cl)cc2nc2ccc(OC)cc12)Cc1cc(F)ccc1OC [SJ000520931],–,1.847
CCCN(CCCNc1c2ccc(Cl)cc2nc2ccc(OC)cc12)Cc1ccc(C)o1 [SJ000520932],–,0.9854
CCCN(CCCNc1c2ccc(Cl)cc2nc2ccc(OC)cc12)Cc1cc(OC)ccc1O [SJ000520933],-150.831,–
CCCN(CCCNc1c2ccc(Cl)cc2nc2ccc(OC)cc12)Cc1c(C)cc(C)cc1C [SJ000520934],–,-46.315
CCCN(CCCNc1c2ccc(Cl)cc2nc2ccc(OC)cc12)Cc1ccco1 [SJ000520935],-202.643,–
CCCN(CCCNc1c2ccc(Cl)cc2nc2ccc(OC)cc12)CC1CC1 [SJ000520936],-271.356,–
CCCN(CCCNc1c2ccc(Cl)cc2nc2ccc(OC)cc12)Cc1ccoc1 [SJ000520937],-394.576,–
CCCN(CCCNc1c2ccc(Cl)cc2nc2ccc(OC)cc12)CC1CCCCC1 [SJ000520938],-163.904,–
